Measured values taken from PubChem BioAssay (NCI).
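Briefly, cells in 96-well plates were exposed to five compound concentrations for 48 h, and endpoints were estimated by linear interpolation. GI50: concentration for 50% inhibition of growth. TGI denotes the concentration required for complete inhibition of growth.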

Tests used:
Test in all cases: inhibition of tumour cell growth, NCI panel, 48 h
UO-31 renal = test system: UO-31 renal
DU-145 prostate = test system: DU-145 prostate
BT-549 breast = test system: BT-549 breast
786-0 renal = test system: 786-0 renal
MALME-3M melanoma = test system: MALME-3M melanoma
SF-268 CNS = test system: SF-268 CNS
HCT-116 colon = test system: HCT-116 colon
SN12C renal = test system: SN12C renal
OVCAR-5 ovarian = test system: OVCAR-5 ovarian
HCC-2998 colon = test system: HCC-2998 colon
TK-10 renal = test system: TK-10 renal
LOX IMVI melanoma = test system: LOX IMVI melanoma
HCT-15 colon = test system: HCT-15 colon
MDA-MB-231 breast = test system: MDA-MB-231 breast
SK-MEL-5 melanoma = test system: SK-MEL-5 melanoma
OVCAR-3 ovarian = test system: OVCAR-3 ovarian
IGROV1 ovarian = test system: IGROV1 ovarian
HS 578T breast = test system: HS 578T breast
CAKI-1 renal = test system: CAKI-1 renal
UACC-257 melanoma = test system: UACC-257 melanoma
U251 CNS = test system: U251 CNS
SR leukemia = test system: SR leukemia
COLO 205 colon = test system: COLO 205 colon
SF-295 CNS = test system: SF-295 CNS
T-47D breast = test system: T-47D breast
SF-539 CNS = test system: SF-539 CNS
PC-3 prostate = test system: PC-3 prostate
K-562 leukemia = test system: K-562 leukemia
SK-MEL-2 melanoma = test system: SK-MEL-2 melanoma
SW-620 colon = test system: SW-620 colon
RPMI-8226 leukemia = test system: RPMI-8226 leukemia
RXF 393 renal = test system: RXF 393 renal
CCRF-CEM leukemia = test system: CCRF-CEM leukemia
OVCAR-8 ovarian = test system: OVCAR-8 ovarian
A498 renal = test system: A498 renal
SNB-75 CNS = test system: SNB-75 CNS
NCI-H23 lung = test system: NCI-H23 lung
ACHN renal = test system: ACHN renal
UACC-62 melanoma = test system: UACC-62 melanoma
SK-MEL-28 melanoma = test system: SK-MEL-28 melanoma
HOP-92 NSCLC = test system: HOP-92 NSCLC
MOLT-4 leukemia = test system: MOLT-4 leukemia
HL-60(TB) leukemia = test system: HL-60(TB) leukemia
M14 melanoma = test system: M14 melanoma
HT29 colon = test system: HT29 colon
NCI/ADR-RES ovarian = test system: NCI/ADR-RES ovarian
SNB-19 CNS = test system: SNB-19 CNS
EKVX NSCLC = test system: EKVX NSCLC
HOP-62 NSCLC = test system: HOP-62 NSCLC
SK-OV-3 ovarian = test system: SK-OV-3 ovarian
NCI-H226 lung = test system: NCI-H226 lung
MDA-MB-435 = test system: MDA-MB-435

Nc1nc(-c2cccc([N+](=O)[O-])c2)c(N=Nc2cccc([N+](=O)[O-])c2)s1
GI50 (UO-31 renal): > 100 µM
TGI (UO-31 renal): > 100 µM
GI50 (DU-145 prostate): > 100 µM
TGI (DU-145 prostate): > 100 µM
GI50 (BT-549 breast): 10.4 µM
TGI (BT-549 breast): > 100 µM
GI50 (786-0 renal): 63 µM
TGI (786-0 renal): > 100 µM
GI50 (MALME-3M melanoma): > 100 µM
TGI (MALME-3M melanoma): > 100 µM
GI50 (SF-268 CNS): > 100 µM
TGI (SF-268 CNS): > 100 µM
GI50 (HCT-116 colon): > 100 µM
TGI (HCT-116 colon): > 100 µM
GI50 (SN12C renal): > 100 µM
TGI (SN12C renal): > 100 µM
GI50 (OVCAR-5 ovarian): > 100 µM
TGI (OVCAR-5 ovarian): > 100 µM
GI50 (HCC-2998 colon): > 100 µM
TGI (HCC-2998 colon): > 100 µM
GI50 (TK-10 renal): 46.5 µM
TGI (TK-10 renal): > 100 µM
GI50 (LOX IMVI melanoma): > 100 µM
TGI (LOX IMVI melanoma): > 100 µM
GI50 (HCT-15 colon): > 100 µM
TGI (HCT-15 colon): > 100 µM
GI50 (MDA-MB-231 breast): 13.6 µM
TGI (MDA-MB-231 breast): > 100 µM
GI50 (SK-MEL-5 melanoma): 56.9 µM
TGI (SK-MEL-5 melanoma): > 100 µM
GI50 (OVCAR-3 ovarian): > 100 µM
TGI (OVCAR-3 ovarian): > 100 µM
GI50 (IGROV1 ovarian): > 100 µM
TGI (IGROV1 ovarian): > 100 µM
GI50 (HS 578T breast): > 100 µM
TGI (HS 578T breast): > 100 µM
GI50 (CAKI-1 renal): > 100 µM
TGI (CAKI-1 renal): > 100 µM
GI50 (UACC-257 melanoma): > 100 µM
TGI (UACC-257 melanoma): > 100 µM
GI50 (U251 CNS): 4.29 µM
TGI (U251 CNS): > 100 µM
GI50 (SR leukemia): 19.2 µM
TGI (SR leukemia): > 57.3 µM
GI50 (COLO 205 colon): > 100 µM
TGI (COLO 205 colon): > 100 µM
GI50 (SF-295 CNS): > 100 µM
TGI (SF-295 CNS): > 100 µM
GI50 (T-47D breast): > 100 µM
TGI (T-47D breast): > 100 µM
GI50 (SF-539 CNS): > 100 µM
TGI (SF-539 CNS): > 100 µM
GI50 (PC-3 prostate): > 27.2 µM
TGI (PC-3 prostate): > 100 µM
GI50 (K-562 leukemia): 1.39 µM
TGI (K-562 leukemia): > 65 µM
GI50 (SK-MEL-2 melanoma): > 92.8 µM
TGI (SK-MEL-2 melanoma): > 100 µM
GI50 (SW-620 colon): > 100 µM
TGI (SW-620 colon): > 100 µM
GI50 (RPMI-8226 leukemia): > 100 µM
TGI (RPMI-8226 leukemia): > 100 µM
GI50 (RXF 393 renal): > 100 µM
TGI (RXF 393 renal): > 100 µM
GI50 (CCRF-CEM leukemia): 39.7 µM
TGI (CCRF-CEM leukemia): > 100 µM
GI50 (OVCAR-8 ovarian): > 100 µM
TGI (OVCAR-8 ovarian): > 100 µM
GI50 (A498 renal): 33.1 µM
TGI (A498 renal): > 100 µM
GI50 (SNB-75 CNS): 53 µM
TGI (SNB-75 CNS): > 100 µM
GI50 (NCI-H23 lung): > 100 µM
TGI (NCI-H23 lung): > 100 µM
GI50 (ACHN renal): > 100 µM
TGI (ACHN renal): > 100 µM
GI50 (UACC-62 melanoma): > 100 µM
TGI (UACC-62 melanoma): > 100 µM
GI50 (SK-MEL-28 melanoma): > 100 µM
TGI (SK-MEL-28 melanoma): > 100 µM
GI50 (HOP-92 NSCLC): 3.79 µM
TGI (HOP-92 NSCLC): > 100 µM
GI50 (MOLT-4 leukemia): > 25.3 µM
TGI (MOLT-4 leukemia): > 100 µM
GI50 (HL-60(TB) leukemia): > 52.6 µM
TGI (HL-60(TB) leukemia): > 92.8 µM
GI50 (M14 melanoma): > 100 µM
TGI (M14 melanoma): > 100 µM
GI50 (HT29 colon): > 100 µM
TGI (HT29 colon): > 100 µM
GI50 (NCI/ADR-RES ovarian): > 100 µM
TGI (NCI/ADR-RES ovarian): > 100 µM
GI50 (SNB-19 CNS): 57.9 µM
TGI (SNB-19 CNS): > 100 µM
GI50 (EKVX NSCLC): > 78.5 µM
TGI (EKVX NSCLC): > 100 µM
GI50 (HOP-62 NSCLC): 64.9 µM
TGI (HOP-62 NSCLC): > 100 µM
GI50 (SK-OV-3 ovarian): > 100 µM
TGI (SK-OV-3 ovarian): > 100 µM
GI50 (NCI-H226 lung): > 100 µM
TGI (NCI-H226 lung): > 100 µM
GI50 (MDA-MB-435): > 100 µM
TGI (MDA-MB-435): > 100 µM
